Assays:
[1] = target: T1, human sphingosine-1-phosphate receptor 1 (S1P1) (Homo sapiens, UniProt P21453); experiment: Inhibition of cAMP production (HTRF cAMP HiRange), S1P1 CHO-K1 cells; format: cell-based; conditions: for Emax: CHO-K1, efficacy normalized to maximum efficacy of fingolimod, read-out: hS1P1 CAMP SPAN; for EC50: inhibition of cAMP production, S1P1, read-out: hS1P1 CAMP pEC50 (converted)
Method in brief: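 Intracellular cAMP changes read by TR-FRET (HTRF HiRange, 1 h room temperature) after 30 min compound exposure at 37 °C. Cells: overnight-plated CHO-K1 stably expressing tagged human S1P1 with EA-β-arrestin2. Responses normalized to fingolimod.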
Target sequence in this assay (P21453 whole entry): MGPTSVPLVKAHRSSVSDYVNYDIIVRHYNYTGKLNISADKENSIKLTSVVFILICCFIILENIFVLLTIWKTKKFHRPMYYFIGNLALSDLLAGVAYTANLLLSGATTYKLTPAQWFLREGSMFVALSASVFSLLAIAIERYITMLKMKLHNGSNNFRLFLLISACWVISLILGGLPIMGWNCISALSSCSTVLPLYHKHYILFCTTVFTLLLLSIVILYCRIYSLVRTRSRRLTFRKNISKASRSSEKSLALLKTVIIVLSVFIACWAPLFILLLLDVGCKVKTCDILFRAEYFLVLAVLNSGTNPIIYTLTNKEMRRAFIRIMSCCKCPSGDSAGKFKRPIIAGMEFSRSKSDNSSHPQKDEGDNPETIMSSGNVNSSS

[2] = target: T1, human sphingosine-1-phosphate receptor 1 (S1P1); experiment: β-Arrestin2 recruitment assay (PathHunter), S1P1 CHO-K1 cells; format: cell-based; conditions: for Emax: CHO-K1, efficacy normalized to maximum efficacy of fingolimod, read-out: hS1P1 B-arrestin2 SPAN; for EC50: β-arrestin2 recruitment, S1P1, read-out: hS1P1 B-arrestin2 pEC50 (converted)
Method in brief: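 Agonist-driven β-arrestin2 recruitment measured by β-galactosidase complementation after 60 min compound exposure at 37 °C and 1 h detection at room temperature. Cells: stable CHO-K1 line expressing tagged human S1P1 with EA-β-arrestin2, plated the night before. Data expressed relative to fingolimod.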
Target sequence in this assay (P21453 whole entry): as above
Target sequence in this assay (P32121 whole entry partner): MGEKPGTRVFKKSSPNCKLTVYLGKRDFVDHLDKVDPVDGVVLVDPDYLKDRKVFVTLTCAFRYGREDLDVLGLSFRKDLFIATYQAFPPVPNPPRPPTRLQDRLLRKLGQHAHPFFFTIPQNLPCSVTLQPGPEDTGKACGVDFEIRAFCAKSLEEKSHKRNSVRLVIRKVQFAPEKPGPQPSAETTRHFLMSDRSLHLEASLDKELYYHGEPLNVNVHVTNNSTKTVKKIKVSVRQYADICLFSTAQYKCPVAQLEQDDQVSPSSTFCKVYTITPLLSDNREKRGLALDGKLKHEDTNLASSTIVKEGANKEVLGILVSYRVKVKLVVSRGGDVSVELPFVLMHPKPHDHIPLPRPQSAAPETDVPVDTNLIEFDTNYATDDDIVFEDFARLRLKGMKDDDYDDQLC

Compound	Emax [1] [%]	EC50 [1] [nM]	Emax [2] [%]	EC50 [2] [nM]
CC(C)Nc1ccc(-c2nc(-c3ccc4c(c3)NC(=O)CC4)no2)cc1C#N [Compound 435, 2-(isopropylamino)-5-(3-(2-oxo-1,2,3,4-tetrahydroquinolin-7-yl)-1,2,4-oxadiazol-5-yl)benzonitrile]	> 75	< 316	> 75	< 10000
CC(C)Nc1ccc(-c2nc(-c3ccc4c(c3)CCNC4=O)no2)cc1C#N [Compound 442, 2-(isopropylamino)-5-(3-(1-oxo-1,2,3,4-tetrahydroisoquinolin-6-yl)-1,2,4-oxadiazol-5-yl)benzonitrile]	> 75	< 316	> 75	< 10000
Cc1cccc2oc(-c3ccc4c(c3)nnn4CC(C)C)nc12 [Compound 447, 2-(1-isobutyl-1H-benzo[d][1,2,3]triazol-5-yl)-4-methyl-benzo[d]oxazole]	> 75	< 316	< 75	< 10000
Cc1ccc2nc(-c3ccc4c(c3)nnn4CC(C)C)oc2c1 [Compound 448, 2-(1-isobutyl-1H-benzo[d][1,2,3]triazol-5-yl)-6-methyl-benzo[d]oxazole]	> 75	> 316	< 75	> 10000
CC(C)Cn1nnc2cc(-c3nc4c(Cl)cccc4o3)ccc21 [Compound 453, 4-chloro-2-(1-isobutyl-1H-benzo[d][1,2,3]triazol-5-yl)benzo[d]oxazole]	> 75	< 316	< 75	–
CC(C)Cn1nnc2cc(-c3nc4cccc(Br)c4o3)ccc21 [Compound 454, 7-bromo-2-(1-isobutyl-1H-benzo[d][1,2,3]triazol-5-yl)benzo[d]oxazole]	> 75	< 316	> 75	–
CCC1(CC)CC(=O)c2cc(-c3nc(-c4ccco4)no3)ccc2O1 [Compound 465, 2,2-diethyl-6-(3-(furan-2-yl)-1,2,4-oxadiazol-5-yl)chroman-4-one]	> 75	< 316	> 75	< 10000
CCC1(CC)CC(=O)c2cc(-c3nc(-c4cccs4)no3)ccc2O1 [Compound 467, 2,2-diethyl-6-(3-(thiophen-2-yl)-1,2,4-oxadiazol-5-yl)chroman-4-one]	> 75	< 316	> 75	< 10000
CCC1(CC)CC(=O)c2cc(-c3nc(-c4ccsc4)no3)ccc2O1 [Compound 468, 2,2-diethyl-6-(3-(thiophen-3-yl)-1,2,4-oxadiazol-5-yl)chroman-4-one]	> 75	< 316	> 75	< 10000
N#Cc1cc(-c2nc(-c3ccc4c(c3)NC(=O)CC4)no2)ccc1NCC1CC1 [Compound 471, 2-((cyclopropyl-methyl)amino)-5-(3-(2-oxo-1,2,3,4-tetrahydroquinolin-7-yl)-1,2,4-oxadiazol-5-yl)benzonitrile]	> 75	< 316	> 75	< 10000
CC(C)Nc1ccc(-c2nnc(-c3ccc4c(c3)CCC(=O)N4)o2)cc1C#N [Compound 473, 5-[5-(2-oxo-1,2,3,4-tetrahydroquinolin-6-yl)-1,3,4-oxadiazol-2-yl]-2-[(propan-2-yl)amino]benzonitrile]	> 75	< 316	> 75	< 10000
N#Cc1cc(-c2nnc(-c3ccc4c(c3)CCC(=O)N4)o2)ccc1NCC1CC1 [Compound 475, 2-[(cyclopropyl-methyl)amino]-5-[5-(2-oxo-1,2,3,4-tetrahydroquinolin-6-yl)-1,3,4-oxadiazol-2-yl]benzonitrile]	> 75	< 316	< 75	< 10000
N#Cc1cc(-c2nnc(-c3ccc4c(c3)CCC(=O)N4)o2)ccc1NCCF [Compound 476, 2-[(2-fluoroethyl)amino]-5-[5-(2-oxo-1,2,3,4-tetrahydroquinolin-6-yl)-1,3,4-oxadiazol-2-yl]benzonitrile]	> 75	< 316	< 75	< 10000
N#Cc1cc(-c2nnc(-c3ccc4c(c3)CCC(=O)N4)o2)ccc1NCC(F)F [Compound 477, 2-[(2,2-difluoroethyl)amino]-5-[5-(2-oxo-1,2,3,4-tetrahydro-quinolin-6-yl)-1,3,4-oxadiazol-2-yl]benzonitrile]	> 75	< 316	< 75	< 10000
O=C1CC(CO)(CO)Oc2ccc(-c3nc(-c4cccnc4)no3)cc21 [Compound 478, 2,2-bis(hydroxymethyl)-6-[3-(pyridin-3-yl)-1,2,4-oxadiazol-5-yl]-3,4-dihydro-2H-1-benzopyran-4-one]	< 75	> 316	< 75	> 10000
O=C1c2cc(-c3nc(-c4cccnc4)no3)ccc2OC(CO)(CO)C1Br (stereo not drawn) [Compound 479, 3-bromo-2,2-bis(hydroxy-methyl)-6-[3-(pyridin-3-yl)-1,2,4-oxadiazol-5-yl]-3,4-dihydro-2H-1-benzopyran-4-one]	< 75	> 316	< 75	> 10000
CC1(C)Oc2ccc(-c3nc(-c4ccncc4)no3)cc2C1=O [Compound 480, 2,2-dimethyl-5-[3-(pyridin-4-yl)-1,2,4-oxadiazol-5-yl]-2,3-dihydro-1-benzofuran-3-one]	> 75	> 316	< 75	> 10000

More lines, now with the values ahead:

Emax [1] [%]	EC50 [1] [nM]	Emax [2] [%]	EC50 [2] [nM]	Compound
> 75	< 316	< 75	< 10000	CCC1(CC)CC(=O)c2cc(-c3noc(-c4ccc(NC(C)C)c(C#N)c4)n3)ccc2O1 [Compound 443, 5-(3-(2,2-diethyl-4-oxochroman-6-y)-1,2,4-oxadiazol-5-yl)-2-(isopropyl-amino)benzonitrile]
< 75	> 316	< 75	< 10000	CCC1(CC)CC(=O)c2cc(-c3noc(-c4ccc(NCC5CC5)c(C#N)c4)n3)ccc2O1 [Compound 444, 2-((cyclopropyl-methyl)amino)-5-(3-(2,2-diethyl-4-oxochroman-6-yl)-1,2,4-oxadiazol-5-yl)benzonitrile]
> 75	> 316	> 75	> 10000	Cc1cccc2nc(-c3ccc4c(c3)nnn4CC(C)C)oc12 [Compound 449, 2-(1-isobutyl-1H-benzo[d][1,2,3]triazol-5-yl)-7-methyl-benzo[d]oxazole]
> 75	< 316	> 75	< 10000	CC(C)n1nnc2cc(-c3nc(-c4sccc4Cl)co3)ccc21 [Compound 463, 5-[4-(3-chlorothiophen-2-yl)-1,3-oxazol-2-yl]-1-(propan-2-yl)-1H-1,2,3-benzotriazole]
< 75	< 316	< 75	> 10000	CCC1(CC)CC(=O)c2cc(-c3nc(-c4ccc[nH]4)no3)ccc2O1 [Compound 464, 6-(3-(1H-pyrrol-2-yl)-1,2,4-oxadiazol-5-yl)-2,2-diethylchroman-4-one]
> 75	> 316	> 75	> 10000	CCC1(CC)CC(=O)c2cc(-c3nc(-c4cnc[nH]4)no3)ccc2O1 [Compound 466, 6-(3-(1H-imidazol-5-yl)-1,2,4-oxadiazol-5-yl)-2,2-diethylchroman-4-one]
> 75	> 316	> 75	> 10000	CCC1(CC)CC(=O)c2cc(-c3nc(-c4ccn[nH]4)no3)ccc2O1 [Compound 470, 6-(3-(1H-pyrazol-5-yl)-1,2,4-oxadiazol-5-yl)-2,2-diethyl-chroman-4-one]
> 75	< 316	> 75	< 10000	N#Cc1cc(-c2nc(-c3ccc4c(c3)CCC(=O)N4)no2)ccc1NCC(F)(F)F [Compound 472, 5-[3-(2-oxo-1,2,3,4-tetrahydroquinolin-6-yl)-1,2,4-oxadiazol-5-yl]-2-[(2,2,2-trifluoro-ethyl)amino]benzonitrile]
> 75	> 316	< 75	< 10000	CC1(C)Oc2ccc(-c3nc(-c4cccnc4)no3)cc2C1=O [Compound 481, 2,2-dimethyl-5-[3-(pyridin-3-yl)-1,2,4-oxadiazol-5-yl]-2,3-dihydro-1-benzofuran-3-one]
< 75	> 316	> 75	> 10000	O=C1CC(CO)(CO)Oc2ccc(-c3nc(-c4ccncc4)no3)cc21 [Compound 482, 2,2-bis(hydroxymethyl)-6-[3-(pyridin-4-yl)-1,2,4-oxadiazol-5-yl]-3,4-dihydro-2H-1-benzopyran-4-one]
> 75	> 316	< 75	> 10000	O=C1c2cc(-c3nc(-c4ccncc4)no3)ccc2OC(CO)(CO)C1Br (stereo not drawn) [Compound 483, 3-bromo-2,2-bis(hydroxy-methyl)-6-[3-(pyridin-4-yl)-1,2,4-oxadiazol-5-yl]-3,4-dihydro-2H-1-benzopyran-4-one]
> 75	< 316	> 75	< 10000	CC(C)Nc1ccc(-c2nnc(-c3ccc4[nH]c(=O)oc4c3)o2)cc1C#N [Compound 484, 5-[5-(2-oxo-2,3-dihydro-1,3-benzoxazol-6-yl)-1,3,4-oxadiazol-2-yl]-2-[(propan-2-yl)amino]benzonitrile]

Reference: patent US20230114241A1, “METHODS OF TREATING EPILEPSY USING THE SAME” (Trevena, Inc., priority 2019, published 2023)
